Values quoted from earlier work, collected in patent US6352979B1, “Method of treating snakebite and complications resulting therefrom” (priority 2001, dated 2002).

Tests used:
[1] = tested on: dogs; conditions: doses higher than 3750 mg/kg (accepted oral LD50 for common table salt)
[2] = tested on: humans; conditions: doses exceeding 40 g/m^2
[3] = tested on: mice; conditions: doses higher than 3750 mg/kg (accepted oral LD50 for common table salt)

SMILES | adverse effects after intravenous administration [1] | adverse effects after administration to humans [2] | adverse effects after intravenous administration [3] | accepted oral LD50 [mg/kg]
O=S(=O)([O-])CCSSCCS(=O)(=O)[O-].[Na+].[Na+] [Dimesna, disodium 2,2′-dithiobis ethane sulfonate] | no adverse effects | no adverse effects | no adverse effects | –
[Cl-].[Na+] [common table salt] | – | – | – | 3750
